Data on ten compounds can be found in paper PMC6321222, “An Application of Fit Quality to Screen MDM2/p53 Protein-Protein Interaction Inhibitors” (Molecules, 2018).

Like-named read-outs stand apart in the source and are kept apart here.

The test system of assay [1] is MDM2/p53 PPI. Particulars: Figure 9, representative of each group; collected from the literature; cited from earlier work.
Assay [2] has as its target T1, human recombinant His-fused soluble protein MDM2 (residues 1–118) (Homo sapiens, UniProt Q00987).
T1 construct: His-fused soluble protein MDM2 (residues 1–118); His
The assay can be described thus: biochemical. The assay is classed as binding. Particulars: for FQ-Test: fit quality calculated using pKi tested by FP; for Ki: fluorescence polarization assay.

In assay [3] the test system is HepG2 (wt-p53). As to the kind of experiment: cells. It counts as cell-based, human. Particulars: for IC50: Homo sapiens, HepG2, means of three experiments, 72 h, read-out: MTT IC50 HepG2 (wt-p53). The protocol:
(§1) In order to further confirm whether they inhibit MDM2 and release p53, a cellular test using HepG2 cell line (wild-type p53; wt-p53) vs. Hep3B cell line (p53 null) was carried out. The selectivity was calculated by IC50 against Hep3B divided by HepG2 (Table 1). The larger the selectivity value was, the stronger the interaction force between the ligands and MDM2.
(§2) The cellular growth inhibitory activity was determined using two human hepatoma cell lines, HepG2 (with wild-type p53) and Hep3B (with wt-p53 null). The IC50 was then analyzed using the GraphPad Prism 5 software (see Supplemental Materials).
(§3) In vitro antitumor activity.
(§4) Liver hepatocellular carcinoma HepG2 (with wild-type p53) and Hep3B (with p53 null) cell lines […]
(§5) 37°C in a humidified 5% carbon dioxide humidified incubator.
(§6) 5-6×10^4 cells per well were plated in 96-well plates (Costar) for 24 h, and the test compounds (prepared in 100% DMSO as a stock solution) were added in triplicate (100µL per well). 8 different concentrations (from 0.05 to 100µM) were tested for each compound. For each assay, the controls included only the medium (blank) and only the cells (positive). After 72 h of incubation, 20 µL of MTT (3-[4,5-dimethylthiazol-2-yl]-2,5-diphenyltetrazoliumbromide) solution (5 mg/mL) was added to each well, and after the samples were shaken for 1 min the plate was incubated further for 4 h at 37°C. […] were dissolved with 150 µL of DMSO and the plates were read using Eon (BioTek) at 570 nm. The IC50 was then analyzed using GraphPad Prism software. […]

In assay [4] the test system is Hep3B (p53 null). As to the kind of experiment: cells. It counts as cell-based. Particulars: Homo sapiens, means of three experiments, 72 h, read-out: MTT IC50 Hep3B (p53 null). The protocol:
as §1, §2, §3, §4, §5, §6

[5] abbreviates: IC50 of Hep3B (p53 null) divided by HepG2 (wt-p53).

T1 sequence (Q00987 1-118): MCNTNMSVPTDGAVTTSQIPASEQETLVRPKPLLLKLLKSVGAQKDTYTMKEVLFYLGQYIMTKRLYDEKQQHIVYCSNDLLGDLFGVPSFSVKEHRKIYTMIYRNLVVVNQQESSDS

With `CCOc1cc(C(C)(C)C)ccc1C1=N[C@@](C)(c2ccc(Cl)cc2)[C@@](C)(c2ccc(Cl)cc2)N1C(=O)N1CCN(CCCS(C)(=O)=O)CC1` [A], in assay [1], the IC50 was 0.09 µM.

Regarding `CC(C)C(CS(=O)(=O)C(C)C)N1C(=O)C(C)(CC(=O)O)CC(c2cccc(Cl)c2)C1c1ccc(Cl)cc1` (stereo not shown) [B], the IC50 in assay [1] is 0.0001 µM.

For the compound `COc1cc(C(=O)O)ccc1NC(=O)[C@@H]1N[C@@H](CC(C)(C)C)[C@](C#N)(c2ccc(Cl)cc2F)[C@H]1c1cccc(Cl)c1F` [G], the IC50 in assay [1] is 0.006 µM.

In the case of `CC(C)(C)CC1NC(C(=O)NC2CCC(O)CC2)C(c2cccc(Cl)c2F)C12C(=O)Nc1cc(Cl)ccc12` (stereo not shown) [H], the IC50 in assay [1] is 0.214 µM.

Turning to `CCCCN1C(=O)[C@](O)(CC(=O)c2ccccc2OC)c2cc(Br)ccc21` [compound 1], in assay [2], the FQ-Test was 0.75 and the Ki was determined as 3.9 µM. In addition, in assay [3], the Selectivity was determined as 8.98 and the half-maximal inhibitory concentration (IC50) came out at 8.63 µM. The IC50 in assay [4] was determined as 77.5 µM.

As to `COc1ccc(OC)c(S(=O)(=O)N(C)CC(=O)Nc2ccccc2OC)c1` [compound 2], in assay [2], the FQ-Test is 0.78 and the Ki stood at 2.21 µM. In assay [3], the IC50 turned out to be 5.38 µM. The same compound came in with a Selectivity in assay [3] (setting [5]) of 6.23. Also, the IC50 in assay [4] amounted to 33.5 µM.

Turning to `O=C(Nc1nc2ccccc2s1)c1ccccc1C(=O)c1ccc(Cl)cc1` [compound 3], in assay [2], the FQ-Test was 0.86 and the Ki came to 0.62 µM. In addition, in assay [3], the Selectivity was determined as 10.75 and the IC50 is 4.4 µM. Also, the IC50 in assay [4] was 47.3 µM.

As to `Nc1c(Cl)cc([C@@H](O)CN[C@H]2c3ccccc3CSc3ccccc32)cc1Cl` [compound 4], in assay [2], the FQ-Test is listed as 0.83 and the Ki stood at 0.82 µM. Moreover, in assay [3], the Selectivity came to 6.51 and the IC50 came out at 5.35 µM. Besides, the IC50 in assay [4] worked out at 34.8 µM.

Turning to `COC(=O)c1cc(Oc2ccc(C(F)(F)F)cc2NS(=O)(=O)c2cccc(Cl)c2C)cs1` [compound 5], in assay [2], the FQ-Test is 0.80 and the Ki turned out to be 0.94 µM. Further, the IC50 in assay [3] came out at 4.77 µM. The same compound had a Selectivity in assay [3] (setting [5]) of 4.87. In addition, the concentration for half-maximal inhibition (IC50) in assay [4] worked out at 23.2 µM.

Take `CCOc1ccccc1Oc1cnc(N)nc1-c1ccc(OCc2ccc(C)cc2)cc1O` [compound 6]: in assay [2], the FQ-Test is recorded as 0.83 and the Ki worked out at 0.59 µM. In assay [3], the Selectivity is recorded as 3.71 and the IC50 stood at 5.54 µM. Moreover, in assay [4], the concentration for half-maximal inhibition (IC50) stood at 20.5 µM.

For orientation: IC50 means the point on the concentration scale where inhibition reaches its midpoint. One may read the Ki as the dissociation constant of the complex between target and ligand, obtained from inhibition or displacement.
